Reference: US20250241891A1, “TREATMENT OF ANXIETY” (GH RESEARCH IRELAND LIMITED, priority 2022, published 2025)

Test system: patients with postpartum depression (PPD)
Assay: Clinical trial of inhaled 5-MeO-DMT in postpartum depression (MADRS, BPRS, BIMF, PES, safety)
Protocol: The single-arm, open-label clinical trial will involve 15 adult female patients with clinically diagnosed postpartum depression (PPD).
The second dose (12 mg) will only be administered if: • a. […] The 6 mg dose was safe and well-tolerated according to the investigator, • c. Any psychoactive effects (PsE) of the prior dose have subsided, and • d. Pre-dose vital parameters and forced expiratory volume in one second (FEV1) are in normal range, or if outside of the normal range, are not clinically significant according to the investigator. • 3. Similarly, a third dose (18 mg) will only be administered if: • a. […] The 12 mg dose was safe and well-tolerated according to the investigator, and • c. Any PsE of the prior dose have subsided, and • d. Pre-dose vital parameters and forced expiratory volume in one second (FEV1) are in normal range, or if outside of the normal range, are not clinically significant according to the investigator.
The patients will be assessed for a peak psychedelic experience (based on a patient-scored visual analogue scale, the PE scale), sedation, and other endpoints after dosing. Follow-up visits are planned for Day 1, and Day 7 after the dosing day.
The following criteria must be met by all patients considered for clinical trial participation: • 1. Is female and in the age range between 18 and 45 years (inclusive) at screening. • 2. Has a body mass index (BMI) in the range of 18.5 and 35 kg/m^2 (inclusive) at screening. • 3. Meets the trial criteria for PPD as assessed by a trial psychiatrist or registered psychologist: • a. Diagnosis of Major Depressive Disorder without psychotic features, confirmed by the Mini-International Neuropsychiatric Interview (MINI), with peri-partum onset that began no earlier than gestation and no later than the first 4 weeks postpartum. • b. Has a Montgomery-Åsberg Depression Rating Scale (MADRS) total score of equal to or greater than 28 at screening and pre-dose on Day 0. • 6. […] Patients must have a negative pregnancy test at screening and on the pre-test day (Day −1). • 5. Is willing to delay start of other antidepressant or anxiety medication until after the end of the trial at Day 7 and agrees to keep any psychotherapy unchanged during the trial.
A potential patient who meets any of the following key exclusion criteria will be excluded from participation in this trial: • 1. Has, based on history, psychiatric assessment, and evaluation of the MINI, a current or prior diagnosis of bipolar disorder, a manic or hypomanic episode, a psychotic disorder, Major Depressive Disorder (MDD) or other mood disorder with psychotic features, obsessive compulsive disorder, post-traumatic stress disorder (PTSD), autism spectrum disorder, borderline personality disorder, schizophrenia, delusional disorder, paranoid personality disorder, schizoaffective disorder, clinically significant intellectual disability, or any other psychiatric comorbidity that renders the patient unsuitable for the trial according to the investigator's judgment. • 2. Has one or more first or second degree relatives with a current or previously diagnosed bipolar disorder, psychotic disorder or other mood disorder (including MDD) with psychotic features. • 3. Is in the judgement of a trial psychiatrist or registered psychologist, at significant risk for suicide based on history, psychiatric assessment, and evaluation of suicidal ideation and suicidal behaviour based on the Columbia-Suicide Severity Rating Scale (C-SSRS). • 4. Has taken anti-depressive medication within 14 days or 5 half-lives (whichever is longer) prior to dosing (exception: within the last 5 weeks in the case of fluoxetine). • 5.

[1] = PPD n=1, IDR 6+12 mg inhaled, day 1, baseline 5
[2] = PPD n=1, IDR 6+12 mg inhaled, day 1, baseline 6
[3] = PPD n=1, IDR 6+12 mg inhaled, day 1, baseline 7
[4] = PPD n=1, IDR 6+12 mg inhaled, day 7, baseline 0
[5] = PPD n=1, IDR 6+12 mg inhaled, day 7, baseline 1
[6] = PPD n=1, IDR 6+12 mg inhaled, day 7, baseline 2
[7] = PPD n=1, IDR 6+12 mg inhaled, day 7, baseline 3
[8] = PPD n=1, IDR 6+12 mg inhaled, day 7, baseline 4
[9] = PPD n=1, IDR 6+12 mg inhaled, day 7, baseline 5
[10] = PPD n=1, IDR 6+12 mg inhaled, day 7, baseline 6
[11] = PPD n=1, IDR 6+12 mg inhaled, day 7, baseline 7
[12] = PPD n=1, IDR 6+12 mg inhaled, discharge, baseline 1
[13] = PPD n=1, IDR 6+12 mg inhaled, discharge, baseline 2
[14] = PPD n=1, IDR 6+12 mg inhaled, discharge, baseline 5
[15] = PPD n=1, IDR 6+12 mg inhaled, discharge, baseline 6
[16] = PPD n=1, IDR 6+12 mg inhaled, discharge, baseline 7

COc1ccc2[nH]cc(CCN(C)C)c2c1 [5-MeO-DMT]
MADRS Reduced Sleep improvement [1]: 5
MADRS Reduced Sleep score [1]: 0
BPRS Depressive Mood improvement [2]: 5
BPRS Depressive Mood score [2]: 1
BPRS Guilt Feelings score [2]: 1
BPRS Guilt feelings improvement [2]: 5
BPRS Somatic Concern improvement [2]: 5
BPRS Somatic Concern score [2]: 1
BPRS Tension improvement [2]: 5
BPRS Tension score [2]: 1
BPRS Anxiety improvement [3]: 6
BPRS Anxiety score [3]: 1
MADRS Concentration Difficulties improvement [4]: 0
MADRS Concentration Difficulties score [4]: 0
MADRS Reduced appetite improvement [4]: 0
MADRS Reduced appetite score [4]: 0
MADRS Suicidal Thoughts improvement [4]: 0
MADRS Suicidal Thoughts score [4]: 0
BPRS Blunted Affect score [5]: 1
BPRS Blunted affect improvement [5]: 0
BPRS Conceptual disorganization improvement [5]: 0
BPRS Conceptual disorganization score [5]: 1
BPRS Disorientation improvement [5]: 0
BPRS Disorientation score [5]: 1
BPRS Grandiosity improvement [5]: 0
BPRS Grandiosity score [5]: 1
BPRS Hallucinatory behaviour improvement [5]: 0
BPRS Hallucinatory behaviour score [5]: 1
BPRS Hostility improvement [5]: 0
BPRS Hostility score [5]: 1
BPRS Mannerisms and Posturing improvement [5]: 0
BPRS Mannerisms and Posturing score [5]: 1
BPRS Motor retardation improvement [5]: 0
BPRS Motor retardation score [5]: 1
BPRS Suspiciousness improvement [5]: 0
BPRS Suspiciousness score [5]: 1
BPRS Uncooperativeness improvement [5]: 0
BPRS Uncooperativeness score [5]: 1
BPRS Unusual Thought Content improvement [5]: 0
BPRS Unusual Thought Content score [5]: 1
BPRS Excitement improvement [6]: 1
BPRS Excitement score [6]: 1
MADRS Inability to Feel improvement [7]: 3
MADRS Inability to Feel score [7]: 0
MADRS Lassitude improvement [7]: 3
MADRS Lassitude score [7]: 0
MADRS Pessimistic Thoughts improvement [8]: 4
MADRS Pessimistic Thoughts score [8]: 0
MADRS Reported sadness improvement [8]: 4
MADRS Reported sadness score [8]: 0
BPRS Emotional Withdrawal score [9]: 1
BPRS Emotional withdrawal improvement [9]: 4
MADRS Apparent sadness improvement [9]: 5
MADRS Apparent sadness score [9]: 0
MADRS Inner Tension improvement [9]: 4
MADRS Inner Tension score [9]: 1
MADRS Reduced Sleep improvement [9]: 5
MADRS Reduced Sleep score [9]: 0
BPRS Depressive Mood improvement [10]: 5
BPRS Depressive Mood score [10]: 1
BPRS Guilt Feelings score [10]: 1
BPRS Guilt feelings improvement [10]: 5
BPRS Somatic Concern improvement [10]: 5
BPRS Somatic Concern score [10]: 1
BPRS Tension improvement [10]: 5
BPRS Tension score [10]: 1
BPRS Anxiety improvement [11]: 6
BPRS Anxiety score [11]: 1
BPRS Blunted Affect score [12]: 1
BPRS Blunted affect improvement [12]: 0
BPRS Conceptual disorganization improvement [12]: 0
BPRS Conceptual disorganization score [12]: 1
BPRS Disorientation improvement [12]: 0
BPRS Disorientation score [12]: 1
BPRS Grandiosity improvement [12]: 0
BPRS Grandiosity score [12]: 1
BPRS Hallucinatory behaviour improvement [12]: 0
BPRS Hallucinatory behaviour score [12]: 1
BPRS Hostility improvement [12]: 0
BPRS Hostility score [12]: 1
BPRS Mannerisms and Posturing improvement [12]: 0
BPRS Mannerisms and Posturing score [12]: 1
BPRS Motor retardation improvement [12]: 0
BPRS Motor retardation score [12]: 1
BPRS Suspiciousness improvement [12]: 0
BPRS Suspiciousness score [12]: 1
BPRS Uncooperativeness improvement [12]: 0
BPRS Uncooperativeness score [12]: 1
BPRS Unusual Thought Content improvement [12]: 0
BPRS Unusual Thought Content score [12]: 1
BPRS Excitement improvement [13]: 1
BPRS Excitement score [13]: 1
BPRS Emotional Withdrawal score [14]: 1
BPRS Emotional withdrawal improvement [14]: 4
BPRS Depressive Mood improvement [15]: 5
BPRS Depressive Mood score [15]: 1
BPRS Guilt Feelings score [15]: 1
BPRS Guilt feelings improvement [15]: 5
BPRS Somatic Concern improvement [15]: 5
BPRS Somatic Concern score [15]: 1
BPRS Tension score [15]: 1
BPRS Anxiety improvement [16]: 6
BPRS Anxiety score [16]: 1
ECG, safety laboratory analyses and CADSS assessments (PPD n=1, ECG 3 hours, laboratory 7 days, CADSS 3 hours, 1 day and 7 days): unremarkable
